Results published in US20230109717A1 (GAIA BioMedicine Inc., priority 2020, published 2023).
Entries after “also recorded” stand apart in the source; their conditions may differ.

System: K562 cells
Assay: Cytotoxic activity rate (% Lysis) of freeze-thawed highly active NK cells against K562 cells
Assay type: cell-based
Settings: for Activity: Exmp. 7, collect. method 2
Procedure: Cytotoxic activity can be expressed as the percentage of target cells killed by effector cells, and is calculated in accordance with the following equation.
(Cell death observed in co-culture with effector cells−Spontaneous cell death (negative control))/(Maximum cell death (positive control)−Spontaneous cell death (negative control))×100
For the measurement of cytotoxic activity, a group of the K562 cells reacted with the NK cells, a group consisting solely of the K562 cells as a negative control, and a group of the K562 cells fixed with 10% formalin as a positive control were prepared.
After incubation for the times indicated for the groups, the cells were collected, and prepared at a density of 2×10^6 cells/mL in 10% FBS/RPMI 1640.
The K562 cells (human chronic myelogenous leukemia cell line) were suspended in serum-free RPMI 1640 medium, stained with PKH26 Red Fluorescent Cell Linker Kit (Sigma, PKH26GL-1KT), and finally prepared at a density of 2×10^6 cells/mL in 10% FBS/RPMI 1640.
The NK cells and K562 cells were added and mixed in wells of 96-well plate (IWAKI, 4870-800SP) at a cell ratio of 1:1, and allowed to react at 37° C. for 2 hours under 5% CO2. After the reaction, the plate was centrifuged (500×g, 5 minutes), and the supernatant was removed. Then, a 7-AAD solution diluted with PBS was added to the cells to suspend the cells, and the suspension was incubated at room temperature for 20 minutes. […]
For the measurement of cytotoxic activity, a group of the NK cells reacted with the K562 cells, a group solely consisting of the K562 cells as a negative control, and a group of the K562 cells fixed with 10% formalin as a positive control were prepared.
The cells were thawed and diluted by the method described above, and a necessary amount of the cells were taken on the basis of the number of viable cells at the time of freezing, and then prepared at a density of 2×10^6 cells/mL in 10% FBS/RPMI 1640.
The K562 cells were suspended in serum-free RPMI 1640 medium, stained with PKH26 Red Fluorescent Cell Linker Kit, and then prepared at a density of 2×10^6 cells/mL in 10% FBS/RPMI 1640. […]
For the measurement of cytotoxic activity, a group of NK cells reacted with K562 cells, a group of K562 cells only as a negative control, and a group of K562 cells fixed with 10% formalin as a positive control were prepared. […]
(9-2) Cytotoxic activity was measured in the same manner as described in the section of (9-1), but after thawing and dilution, the cells were left to stand for up to 6 hours, and cytotoxic activity was measured by the method described in the section b) mentioned above at the time points of 2, 5, and 6 hours. In detail, the NK cells and K562 cells were added to each well of a 96-well plate (IWAKI, 4870-800SP) at a cell ratio of 1:1, mixed, and then allowed to react at 37° C. for 2 hours under 5% CO2.

C[C@H](CCC(=O)NCCS(=O)(=O)O)[C@H]1CC[C@H]2[C@@H]3[C@@H](O)C[C@@H]4C[C@H](O)CC[C@]4(C)[C@H]3CC[C@]12C [TUDCA, tauroursodeoxycholic acid dihydrate]
Activity (pretreatment KBM + 266 μM TUDCA 2 h, thawing PlasmaLyte + IL-2, R.T. 1 h): A (A means 70% or higher)
Activity (pretreatment KBM + 266 μM TUDCA 2 h, thawing PlasmaLyte + IL-2, R.T. 1 h, then KBM 2 h): A (A means 70% or higher)
Activity (pretreatment KBM + 266 μM TUDCA 2 h, thawing PlasmaLyte + IL-2, R.T. 3 h): A (A means 70% or higher)
Activity (pretreatment KBM + 266 μM TUDCA 2 h, thawing PlasmaLyte R.T. 1 h): A (A means 70% or higher)
Activity (pretreatment KBM + 266 μM TUDCA 2 h, thawing PlasmaLyte R.T. 1 h, then KBM 2 h): A (A means 70% or higher)
Activity (pretreatment KBM + 266 μM TUDCA 2 h, thawing PlasmaLyte R.T. 3 h): A (A means 70% or higher)
Activity (pretreatment KBM + 800 μM TUDCA 2 h, thawing PlasmaLyte + IL-2, R.T. 1 h): A (A means 70% or higher)
Activity (pretreatment KBM + 800 μM TUDCA 2 h, thawing PlasmaLyte + IL-2, R.T. 1 h, then KBM 2 h): A (A means 70% or higher)
Activity (pretreatment KBM + 800 μM TUDCA 2 h, thawing PlasmaLyte + IL-2, R.T. 3 h): A (A means 70% or higher)
Activity (pretreatment KBM + 800 μM TUDCA 2 h, thawing PlasmaLyte R.T. 1 h): A (A means 70% or higher)
Activity (pretreatment KBM + 800 μM TUDCA 2 h, thawing PlasmaLyte R.T. 1 h, then KBM 2 h): A (A means 70% or higher)
Activity (pretreatment KBM + 800 μM TUDCA 2 h, thawing PlasmaLyte R.T. 3 h): A (A means 70% or higher)
Activity (pretreatment KBM + 2400 μM TUDCA 2 h, thawing PlasmaLyte + IL-2, R.T. 1 h): A (A means 70% or higher)
Activity (pretreatment KBM + 2400 μM TUDCA 2 h, thawing PlasmaLyte + IL-2, R.T. 1 h, then KBM 2 h): A (A means 70% or higher)
Activity (pretreatment KBM + 2400 μM TUDCA 2 h, thawing PlasmaLyte + IL-2, R.T. 3 h): A (A means 70% or higher)
Activity (pretreatment KBM + 2400 μM TUDCA 2 h, thawing PlasmaLyte R.T. 1 h): A (A means 70% or higher)
Activity (pretreatment KBM + 2400 μM TUDCA 2 h, thawing PlasmaLyte R.T. 1 h, then KBM 2 h): A (A means 70% or higher)
Activity (pretreatment KBM + 2400 μM TUDCA 2 h, thawing PlasmaLyte R.T. 3 h): A (A means 70% or higher)
Cytotoxic activity of frozen and thawed highly active NK cells (pretreatment 2 hours, 10 to 810 μM, Plasma-Lyte A after thawing, 1 and 3 hours, K562, E:T 2:1, 2 hours, Example 6, dihydrate): Improvement of the cytotoxic activity; also recorded: improved in a TUDCA concentration-dependent manner
